{"source": "paper PMC11329504", "about": "“Identification of novel small molecule-based strategies of COL7A1 upregulation and readthrough activity for the treatment of recessive dystrophic epidermolysis bullosa” (Scientific Reports, 2024)", "key": {"[1]": {"system": "total (truncated + full length) C7 in RDEB_L5 cells", "assay": "AlphaLISA quantification of total C7 in RDEB_L5 cells", "type": "cell-based, human", "experimental": "(§1) The AlphaLISA assay was developed in-house by using the biotin-conjugated rabbit polyclonal antibody anti-C7 (LSBio LS-298147) and conjugating the acceptor beads (PerkinElmer 6772001) to a monoclonal anti-Collagen type VII antibody produced in mouse, clone LH7.2 (Thermo MA5-13,432). Formulation of the mAb clone LH7.2 was exchanged to PBS and concentrated 5 × by using Amicon® Ultra-0.5 centrifugal filters up to 1 mg/ml. The conjugation procedure was carried out according to the protocol provided by PerkinElmer.\n(§2) For compound treatment in RDEB patient-derived transformed keratinocytes, 5,000 cells were plated in 20 µL of supplemented KGM media containing 20 ng/mL TGFβ2 (SIGMA GF113) without GA-1000 in 384-well cell culture plates (Greiner 781098). The day after, 5 µL of test compounds prepared 5 × in supplemented KGM without GA-1000 were added over cells and incubated for 48 h at 37 °C and 5% CO2. For compound treatment in HEK293^R578X, 10,000 cells were plated in 20 μL of DMEM (High Glucose, 2 mM L-Glutamine, sodium pyruvate, and FBS 10%) in 384-well cell culture plates (Greiner 781,098,). The day after, 5 μL of test compounds prepared 5 × in DMEM complete medium were added over cells and incubated for 48 h at 37 °C and 5% CO2.\n(§3) After the treatment process, 2.5 µL of RIPA buffer 10 x (Abcam ab156034) were added over the […] of cells for 20 min at room temperature to obtain a complete cell lysis. Then, 2 μL of sample (i.e., cell lysate with supernatant) were transferred to the AlphaLISA plate (PerkinElmer 6,059,340) containing […] of antibodies mixture ([…] of acceptor Beads-Ab and […] of biotin-rAb) prepared in AlphaLISA buffer 1 x (PerkinElmer AL00F). The reaction was incubated for 90 min at room temperature. Finally, 10 μL of […] of donor beads (PerkinElmer 6760002,) were added to the reaction under subdued light, mixed gently, and incubated for 3 h at room temperature. AlphaLISA signal was detected with an Envision microplate reader (Perkin Elmer) using the following setting: Filter: AlphaScreen, Excitation time: 180 ms, Integration time: 300 ms.\n(§4) Statistical analyses were performed using GraphPad Prism v. 7.04 (La Jolla, California). Results are shown as mean ± SD of experimental replicates. Dose–response curves to assess compound treatment effect were plotted in a four-parameter logistic model. Relative EC50, representing the total drug concentration producing a 50% effect, was calculated in the four-parameter logistic equation. Comparisons of collagen protein and mRNA expression in different experimental conditions were made using ANOVA, followed by a post hoc test. statistical significance was considered with p values < 0.05."}, "[2]": {"system": "total C7 in HEK293^R578X cells", "assay": "AlphaLISA quantification of total C7 in recombinant HEK293^R578X cells", "type": "cell-based, human", "experimental": "as §1, §2, §3, §4"}, "[3]": {"system": "truncated and full-length C7 in RDEB_L1, RDEB_L5 and HEK293^R578X cells", "assay": "Western blot detection of truncated and full-length C7", "type": "cell-based, human", "details": "RDEB_L1, RDEB_L5 and HEK293^R578X cells", "experimental": "For western blot, RDEB or normal human keratinocytes were lysed in protein extraction buffer (50 mM Tris–HCl [pH 7.5], 100 mM NaCl, 1% Nonidet P-40, and 4 mM EDTA) containing proteinase inhibitors cocktail (Complete Mini, EDTA free; Roche Diagnostics, Mannheim, Germany). Lysates were incubated for 30 min on ice and centrifuged at 15,000 g for 30 min at 4 °C. Supernatants were then collected and concentrated by ultrafiltration using Amicon Ultra columns (10 kDa; Millipore, Ireland). Protein concentrations were measured using the Bradford assay (Bio-Rad, Hercules, CA). For each sample, […] total protein was resolved on NuPAGE Novex 3%–8% Tris–Acetate gel electrophoresis (Invitrogen, Carlsbad, CA) and electrotransferred to nitrocellulose membranes (Invitrogen, Carlsbad, CA). For type VII collagen analysis, blots were probed with a monospecific polyclonal anti-C7 antibody (a generous gift from Dr. A. Nystrom, University of Freiburg). Invitrogen anti-MDH1 polyclonal antibody (PA550446, 1:1000) was used to detect MDH1. Standard antibodies against a reference protein were used as a loading control, as indicated. Visualization of the resulting signal was performed by incubating with horseradish peroxidase (HRP)- conjugated anti-rabbit antibody (Amersham, Burlington, MA) and West Pico Chemiluminescent Substrate (Pierce, Rockford, IL)."}, "NHK cells": {"system": "NHK cells", "assay": "Cytotoxicity, ATP levels, normal human keratinocytes (NHK)", "type": "cell-based", "details": "NHK cells, ATP levels, at 40 µM", "experimental": "The viability of RDEB patient-derived cell lines or NHK was evaluated by measuring the ATP levels as an indirect readout of the potential cytotoxicity effect of compounds. Cells were plated and treated exactly with the same conditions as those followed in the AlphaLISA assay, described above. To measure ATP levels, cells were processed using the ATPlite™ 1step luminescence-based assay (PerkinElmer 6,016,731), following the manufacturer’s protocol. 25 μL of ATPlite™ reagent was added directly over cells and plates were covered with a sealing film and shaken for 25 min using a microtiter plate shaker. Luminescence was measured in a Luminoskan Ascent luminometer (Thermo Fisher Scientific). 10 μM of Staurosporine was used as a reference compound and control for the total cytotoxicity."}, "[4]": {"system": "total (truncated + full length) C7 in RDEB_L1 cells", "assay": "AlphaLISA quantification of total C7 in RDEB_L1 cells", "type": "cell-based, human", "experimental": "as §1, §2, §3, §4"}}, "note": "Like-named read-outs stand apart in the source and are kept apart here.", "data": [{"smiles": "CN[C@@H]1[C@@H](O)[C@@H](O[C@@H]2[C@@H](O)[C@H](O[C@H]3O[C@H]([C@@H](C)O)[C@@H](O)[C@H](O)[C@H]3N)[C@@H](N)C[C@H]2N)OC[C@]1(C)O", "note": "[Compound G418, G418, reference compound]", "values": [{"measurement": "Increase in C7 levels Emax, % vs baseline", "setting": "[1]; at 25 µM, 20 ng/mL TGFß2", "result": 35.5, "unit": "at 25 % vs baseline"}, {"measurement": "EC50", "setting": "[1]; total C7 AlphaLISA, 48 h, 20 ng/mL TGFß2, relative EC50, mean ± SD, read-out: Increase in C7 levels EC50", "result": 12, "unit": "µM"}, {"measurement": "Increase in C7 levels Emax, % vs baseline", "setting": "[2]; at 40 µM", "result": "71 ± 6", "unit": "at 40 % vs baseline"}, {"measurement": "EC50", "setting": "[2]; total C7 AlphaLISA, 48 h, relative EC50, mean ± SD, read-out: Increase in C7 levels EC50", "result": "16 ± 0.09", "unit": "µM"}, {"measurement": "C7 products induced, western blot", "setting": "[3]", "result": "detectable upregulation of full length and truncated C7"}, {"measurement": "Cytotox. % inhibition of viability", "setting": "NHK cells", "result": "30.8% ± 3.4 at 40 (n=4)"}, {"measurement": "Increase in C7 levels Emax, % vs baseline", "setting": "[4]; RDEB_L1 cells, at 20 µM, 20 ng/mL TGFß2", "result": "124 ± 76", "unit": "at 20 % vs baseline"}, {"measurement": "EC50", "setting": "[4]; RDEB_L1 cells, read-out: EC50 in the AlphaLISA assay", "result": 4.9, "unit": "µM"}, {"measurement": "EC50", "setting": "[4]; in RDEB_L1 and RDEB_L5 cells, read-out: EC50 (range over two cell lines)", "result": "4.9 to 12", "unit": "µM"}]}]}
